Laboratory results as given in patent publication US5807691A, “Polypeptides having serotonin receptor activity (5HT5A), nucleic acids coding for these polypeptides and uses thereof” (Institut National De La Sante et Da La Recherche Medicale, priority 1992, dated 1998).
Like-named read-outs stand apart in the source and are kept apart here.

Key:
[1] = biological target: 5HT1D; conditions: cited from earlier work
[2] = system: 5HT5a receptor; test: Saturation binding of radiolabelled serotonin ligands to membranes of Cos-7 cells expressing the 5HT5a receptor; parameters: species or system rat; conditions: 10 minutes at 37° C., 50 mM Tris-HCl pH 7.4
Description: The specific binding is shown.
(§1) Radioactivity was measured with a γ counter.

[3] = biological target: 5HT1D; conditions: cited from earlier work; remark: listed apart in the source
[4] = biological target: 5HT5a receptor
[5] = system: 5HT5a receptor; test: [^125 I]-LSD binding to membranes of NIH-3T3 clones NS1 and NS4 expressing the 5HT5a receptor; parameters: species or system rat
Description: as §1
For this purpose, the recombinant expression vector described in 3. above was used. […] The transformant clones were selected in the presence of 0.5 mg of G418. The clones isolated were then amplified, and the total RNAs of these clones were prepared and analysed by Northern blotting for the expression of 5HT5a mRNA.
The membranes of the cells of these clones were then prepared and tested under the conditions described above for their capacity to bind some labelled serotonin ligands, and to determine the affinity of the receptors for the said ligands.
Different displacement experiments were then carried out (Table 1).

[6] = system: 5HT5a receptor; remark: listed apart in the source

| SMILES | pKi 5HT1D (Calf caudate) ([1]; Calf caudate) | pKi 5HT1D (rat cortex) [3] | further results |
| --- | --- | --- | --- |
| CN(C)CCc1c[nH]c2ccc(O)cc12 [Bufotenine] | 8.1 |  |  |
| CCCN(CCC)C1CCc2cccc(O)c2C1 (stereo not drawn) [[^3 H]-8-OH-DPAT] |  |  | binding of radiolabelled ligand to membranes of transfected Cos-7 cells [2]: do not bind |
| NCCc1c[nH]c2ccc(O)cc12 [5-HT, 5-hydroxytryptamine] | 8.4 | 8.7 |  |
| NC[C@H](O)c1ccc(O)c(O)c1 [(-)Norepinephrine] |  |  | Ki [4]: 1580 µM |
| O=C(CCCN1CCC2(CC1)C(=O)NCN2c1ccccc1)c1ccc(F)cc1 [[^3 H]-spiperone] |  |  | binding of radiolabelled ligand to membranes of transfected Cos-7 cells [2]: do not bind |
| COC(=O)[C@@H]1[C@H]2C[C@H]3c4[nH]c5ccccc5c4CCN3C[C@@H]2CC[C@@H]1O [Yohimbine] |  |  | pKi 5HT1D (Calf caudate) [1]: 7.1 |
| CCN(CC)C(=O)[C@@H]1C=C2c3cccc4[nH]c([125I])c(c34)C[C@H]2N(C)C1 [[^125 I]-LSD] |  |  | binding sites for [^125 I]-LSD on membranes of clones NS1 and NS4 [5]: high-affinity binding sites; binding of radiolabelled ligand to membranes of transfected Cos-7 cells [2]: possesses a saturable binding site; Kd ([2]; Cos-7 membranes, non-specific binding with 10 μM 5HT, FIG. 2): 0.00034 µM |
| COc1ccc2[nH]cc(C3=CCNCC3)c2c1 [RU24969] | 7.3 |  |  |
| CC(C)(C)NCC(O)COc1cccc2[nH]c(C#N)c([125I])c12 (stereo not drawn) [[^125 I]-cyanopindolol] |  |  | binding of radiolabelled ligand to membranes of transfected Cos-7 cells [2]: do not bind |
| NCCc1ccc(O)c(O)c1 [Dopamine] |  |  | Ki [4]: 79.4 µM |
| CCCN(CCC)C1CCc2cccc(O)c2C1 (stereo not drawn) [8-OH-DPAT] | 5.9 | 6.6 |  |
| FC(F)(F)c1cccc(N2CCNCC2)c1 [TFMPP] | 6.2 | 6.6 |  |
| NCCc1c[nH]c2ccc(C(N)=O)cc12 [5-CT] | 8.6 | 8.6 |  |
| CC(C)NCC(O)COc1cccc2[nH]ccc12 (racemic) [(±)Pindolol] | 5.2 | < 5 |  |
| O=C(c1ccc(F)cc1)C1CCN(CCn2c(=O)[nH]c3ccccc3c2=O)CC1 [Ketanserin] | 5.7 | < 5 | Ki [4]: 15.8 µM |
| CNS(=O)(=O)Cc1ccc2[nH]cc(CCN(C)C)c2c1 [Sumatriptan] | 7.5 |  |  |
| CN1C[C@H](C(=O)N[C@]2(C)O[C@@]3(O)[C@@H]4CCCN4C(=O)[C@H](Cc4ccccc4)N3C2=O)C=C2c3cccc4[nH]cc(c34)C[C@H]21 [Ergotamine] |  |  | pKi 5HT1D (Calf caudate) [1]: 7.8; pKi 5HT5 (Cos-7) [6]: 8.4 |
